Counter-ions that a name gives are not always drawn.
Key:
[1] = target: T1, human adenosine A2A receptor (Homo sapiens, UniProt P29274); experiment: [3H]-SCH-58261 binding assay at the human adenosine A2A receptor; settings: read-out: pKi value (converted)
T1 construct: expressed in transfected cells; host or cells: CHO cells, Semliki Forest virus expression system; washed membrane pellet used
Protocol: Human Adenosine A2A Receptor
The human adenosine A2A receptor was recombinantly expressed in chinese hamster ovary (CHO) cells using the semliki forest virus expression system. Cells were harvested, washed twice by centrifugation, homogenised and again washed by centrifugation. The final washed membrane pellet was suspended in a Tris (50 mM) buffer containing 120 mM NaCl, 5 mM KCl, 2 mM CaCl2 and 10 mM MgCl2 (pH 7.4) (buffer A). The [^3H]-SCH-58261 (Dionisotti et al., 1997, Br J Pharmacol 121, 353; 1 nM) binding assay was carried out in 96-well plates in the presence of 2.5 μg of membrane protein, 0.5 mg of Ysi-poly-1-lysine SPA beads and 0.1 U adenosine deaminase in a final volume of 200 μl of buffer A. Non-specific binding was defined using xanthine amine congener (XAC; 2 μM). Compounds were tested at 10 concentrations from 10 μM-0.3 nM. All assays were conducted in duplicate and repeated at least two times. Assay plates were incubated for 1 hour at room temperature before centrifugation and then bound ligand determined using a Packard Topcount scintillation counter. IC50 values were calculated using a non-linear curve fitting program and Ki values calculated using the Cheng-Prussoff equation.

T1 sequence (P29274 whole entry): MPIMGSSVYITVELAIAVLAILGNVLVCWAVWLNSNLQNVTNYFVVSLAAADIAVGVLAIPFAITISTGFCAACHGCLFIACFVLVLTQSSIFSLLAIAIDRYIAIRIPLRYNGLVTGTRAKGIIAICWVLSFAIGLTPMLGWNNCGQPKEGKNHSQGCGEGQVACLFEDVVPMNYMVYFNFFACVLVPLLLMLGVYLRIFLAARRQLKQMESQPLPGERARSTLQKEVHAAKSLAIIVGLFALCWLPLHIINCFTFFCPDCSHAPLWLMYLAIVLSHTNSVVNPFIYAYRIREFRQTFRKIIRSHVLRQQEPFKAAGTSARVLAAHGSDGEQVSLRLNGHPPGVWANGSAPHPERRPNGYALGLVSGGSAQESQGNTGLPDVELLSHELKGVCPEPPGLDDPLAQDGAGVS

Structure (SMILES) | melting point | Ki [1]
COCCN(C)Cc1ccc(C(=O)Nc2nc3c(OC)ccc(-c4csc(C)n4)c3s2)cc1 [Example 242, 4-{[(2-Methoxy-ethyl)-methyl-amino]-methyl}-N-[4-methoxy-7-(2-methyl-thiazol-4-yl)-benzothiazol-2-yl]-benzamide] | 140 to 145 °C | 
COc1ccc(-c2ccc(C)s2)c2sc(NC(=O)N3CCC(O)CC3)nc12 [Example 266, 4-Hydroxy-piperidine-1-carboxylic acid [4-methoxy-7-(5-methyl-thiophen-2-yl)-benzothiazol-2-yl]-amide] | 197 to 204 °C (dec.) | 
COc1ccc(-c2ccc(C)s2)c2sc(NC(=O)c3ccc(CCl)cc3)nc12 [Example 234, 4-Chloromethyl-N-[4-methoxy-7-(5-methyl-thiophen-2-yl)-benzothiazol-2-yl]-benzamide] | 130 to 146 °C | 
COc1ccc(-c2csc(N)n2)c2sc(NC(=O)c3ccc(F)cc3)nc12 [Example 217, N-[7-(2-Amino-thiazol-4-yl)-4-methoxy-benzothiazol-2-yl]-4-fluoro-benzamide] | 262 to 264 °C | 
COCCN(C)Cc1ccc(C(=O)Nc2nc3c(OC)ccc(-c4csc(NC(c5ccccc5)(c5ccccc5)c5ccccc5)n4)c3s2)cc1 [Example 236, 4-{[(2-Methoxy-ethyl)-methyl-amino]-methyl}-N-{4-methoxy-7-[2-(trityl-amino)-thiazol-4-yl]-benzothiazol-2-yl}-benzamide] | 119 to 128 °C | 
COc1ccc(-c2csc(NC(c3ccccc3)(c3ccccc3)c3ccccc3)n2)c2sc(NC(=O)c3ccc(CCl)cc3)nc12 [Example 229, 4-Chloromethyl-N-{4-methoxy-7-[2-(trityl-amino)-thiazol-4-yl]-benzothiazol-2-yl}-benzamide] | 163 °C (dec.) | 
COc1ccc(-c2csc(-c3ccccn3)n2)c2sc(NC(=O)c3ccc(F)cc3)nc12 [Example 222, 4-Fluoro-N-[4-methoxy-7-(2-pyridin-2-yl-thiazol-4-yl)-benzothiazol-2-yl]-benzamide] | 150 °C (dec.) | 
COc1ccc(-c2csc(C)n2)c2sc(NC(=O)c3ccc(F)cc3)nc12 [Example 224, 4-Fluoro-N-[4-methoxy-7-(2-methyl-thiazol-4-yl)-benzothiazol-2-yl]-benzamide] | 217 to 219 °C | 
COc1ccc(-c2csc(N3CCN(C)CC3)n2)c2sc(NC(=O)N3CCOCC3)nc12 [Example 261, Morpholine-4-carboxylic acid {4-methoxy-7-[2-(4-methyl-piperazin-1-yl)-thiazol-4-yl]-benzothiazol-2-yl}-amide] | 150 to 170 °C | 
COc1ccc(-c2cccs2)c2sc(NC(=O)N3CCOCC3)nc12 [Example 263, Morpholine-4-carboxylic acid (4-methoxy-7-thiophen-2-yl-benzothiazol-2-yl)-amide] | 175 to 182 °C (dec.) | 
COc1ccc(-c2csc(C)n2)c2sc(NC(=O)c3ccc(CCl)cc3)nc12 [Example 233, 4-Chloromethyl-N-[4-methoxy-7-(2-methyl-thiazol-4-yl)-benzothiazol-2-yl]-benzamide] | 140 to 145 °C | 
COc1ccc(-c2cccs2)c2sc(NC(=O)c3ccc(F)cc3)nc12 [Example 220, 4-Fluoro-N-(4-methoxy-7-thiophen-2-yl-benzothiazol-2-yl)-benzamide] | 242 to 250 °C | 
COc1ccc(-c2csc(N3CCOCC3)n2)c2sc(NC(=O)c3ccc(F)cc3)nc12 [Example 216, 4-Fluoro-N-[4-methoxy-7-(2-morpholin-4-yl-thiazol-4-yl)-benzothiazol-2-yl]-benzamide] | 225 to 227 °C | 
COc1ccc(-c2csc(N(C)C)n2)c2sc(NC(=O)c3ccc(F)cc3)nc12 [Example 219, N-[7-(2-Dimethylamino-thiazol-4-yl)-4-methoxy-benzothiazol-2-yl]-4-fluoro-benzamide] | 218 to 220 °C | 
COc1ccc(-c2csc(N3CCCCC3)n2)c2sc(NC(=O)N3CCOCC3)nc12 [Example 262, Morpholine-4-carboxylic acid [4-methoxy-7-(2-piperidin-1-yl-thiazol-4-yl)-benzothiazol-2-yl]-amide] | 227 to 234 °C | 
COc1ccc(-c2csc(-c3ccccn3)n2)c2sc(NC(=O)c3ccc(CCl)cc3)nc12 [Example 232, 4-Chloromethyl-N-[4-methoxy-7-(2-pyridin-2-yl-thiazol-4-yl)-benzothiazol-2-yl]-benzamide] | 195 to 201 °C | 
COc1ccc(-c2ccc(C)s2)c2sc(NC(=O)c3ccc(F)cc3)nc12 [Example 225, 4-Fluoro-N-[4-methoxy-7-(5-methyl-thiophen-2-yl)-benzothiazol-2-yl]-benzamide] | 192 to 196 °C (dec.) | 

Structure (SMILES) | melting point | Ki [1]
COc1ccc(-c2cccs2)c2sc(NC(=O)c3ccc(CCl)cc3)nc12 [Example 231, 4-Chloromethyl-N-(4-methoxy-7-thiophen-2-yl-benzothiazol-2-yl)-benzamide] | 183 to 209 °C (dec.) | 
COCCN(C)Cc1ccc(C(=O)Nc2nc3c(OC)ccc(-c4ccc(C)s4)c3s2)cc1 [Example 243, 4-{[(2-Methoxy-ethyl)-methyl-amino]-methyl}-N-[4-methoxy-7-(5-methyl-thiophen-2-yl)-benzothiazol-2-yl]-benzamide] | 83 to 90 °C | 
COC(=O)N(C)Cc1ccc(C(=O)Nc2nc3c(OC)ccc(N4CCOCC4)c3s2)cc1 [Example 369, [4-(4-Methoxy-7-morpholin-4-yl-benzothiazol-2-ylcarbamoyl)-benzyl]-methyl-carbamic acid methyl ester] |  | 0.631 nM
COCCN(C)Cc1ccc(C(=O)Nc2nc3c(OC)ccc(-c4csc(N(C)C)n4)c3s2)cc1 [Example 239, N-[7-(2-Dimethylamino-thiazol-4-yl)-4-methoxy-benzothiazol-2-yl]-4-{[(2-methoxy-ethyl)-methyl-amino]-methyl}-benzamide] | 85 to 95 °C | 
COc1ccc(-c2ccccc2)c2sc(NC(=O)c3ccc(Cn4ccnc4)cc3)nc12 [Example 100, 4-Imidazol-1-ylmethyl-N-(4-methoxy-7-phenyl-benzothiazol-2-yl)-benzamide hydrochloride salt (1:1)] |  | 0.501 nM
COc1ccc(-c2ccccc2)c2sc(NC(=O)c3ccncc3)nc12 [Example 36, N-(4-Methoxy-7-phenyl-benzothiazol-2-yl)-isonicotinamide] |  | 0.794 nM
COc1ccc(-c2csc(N3CCCC3)n2)c2sc(NC(=O)c3ccnc(C)c3)nc12 [Example 255, N-[4-Methoxy-7-(2-pyrrolidin-1-yl-thiazol-4-yl)-benzothiazol-2-yl]-2-methyl-isonicotinamide] | 195 to 215 °C | 
COCCN(C)Cc1ccc(C(=O)Nc2nc3c(OC)ccc(-c4cccs4)c3s2)cc1 [Example 240, 4-{[(2-Methoxy-ethyl)-methyl-amino]-methyl}-N-(4-methoxy-7-thiophen-2-yl-benzothiazol-2-yl)-benzamide] | 58 to 78 °C | 3.16 nM
COc1ccc(-c2ccccc2)c2sc(NC(=O)c3ccc(C)s3)nc12 [Example 3, 5-Methyl-thiophene-2-carboxylic acid (4-methoxy-7-phenyl-benzothiazol-2-yl)-amide] |  | 1.58 nM
COc1ccc(-c2ccc(C)s2)c2sc(NC(=O)N3CCOCC3)nc12 [Example 264, Morpholine-4-carboxylic acid [4-methoxy-7-(5-methyl-thiophen-2-yl)-benzothiazol-2-yl]-amide] | 173 to 180 °C (dec.) | 
CNCc1ccc(C(=O)Nc2nc3c(OC)ccc(N4CCOCC4)c3s2)cc1 [Example 292, N-(4-Methoxy-7-morpholin-4-yl-benzothiazol-2-yl)-4-methylaminomethyl-benzamide] |  | 1.58 nM
COc1ccc(-c2csc(C)n2)c2sc(NC(=O)N3CCN(C)CC3)nc12 [Example 267, 4-Methyl-piperazine-1-carboxylic acid [4-methoxy-7-(2-methyl-thiazol-4-yl)-benzothiazol-2-yl]-amide] | 179 to 181 °C | 
COc1ccc(-c2csc(N3CCN(C)CC3)n2)c2sc(NC(=O)c3ccc(F)cc3)nc12 [Example 221, 4-Fluoro-N-{4-methoxy-7-[2-(4-methyl-piperazin-1-yl)-thiazol-4-yl]-benzothiazol-2-yl}-benzamide] | 138 °C (dec.) | 2 nM
COCCNCc1ccc(C(=O)Nc2nc3c(OC)ccc(-c4ccccc4)c3s2)cc1 [Example 91, 4-[(2-Methoxy-ethylamino)-methyl]-N-(4-methoxy-7-phenyl-benzothiazol-2-yl)-benzamide hydrochloride salt (1:1)] |  | 1.58 nM
COc1ccc(-c2ccccc2)c2sc(NC(=O)N3CCOCC3)nc12 [Example 157, Morpholine-4-carboxylic acid (4-methoxy-7-phenyl-benzothiazol-2-yl)-amide] |  | 1.26 nM
COc1ccc(-c2csc(-c3ccc(C)nc3)n2)c2sc(NC(=O)c3ccc(CCl)cc3)nc12 [Example 228, 4-Chloromethyl-N-{4-methoxy-7-[2-(6-methyl-pyridin-3-yl)-thiazol-4-yl]-benzothiazol-2-yl}-benzamide] | 230 to 250 °C | 
CCOC(=O)C(=O)Nc1nc2c(OC)ccc(-c3ccccc3)c2s1 [Example 47, N-(4-Methoxy-7-phenyl-benzothiazol-2-yl)-oxalamic acid ethyl ester] | 138 to 142 °C | 
